According to patent US20100048696A1, “AGRICULTURAL DISEASE CONTROL AGENT” (Idemitsu Kosan Co., Ltd., priority 2007, published 2010):
Like-named read-outs stand apart in the source and are kept apart here.

How the values were obtained:
[1] = test system: Pythium ultimum; assay: Material disinfection test; type: cell-based; settings: 5 minutes
[2] = test system: Botrytis cinerea; assay: Material disinfection test; type: cell-based; settings: 5 minutes
[3] = test system: Erwinia chrysanthemi; assay: Material disinfection test; type: cell-based; settings: 5 minutes
[4] = test system: Fusarium oxysporum; assay: Material disinfection test; type: cell-based; settings: 5 minutes
[5] = test system: bacteria pathogens and filamentous fungi pathogens; type: cell-based
[6] = test system: Ralstonia solanacearum; type: cell-based; settings: 5 minutes
[7] = test system: Pyricularia oryzae; type: cell-based; settings: 5 minutes
[8] = test system: Erwinia carotovora var. cartovora; assay: Test using potatoes: blackleg pathogenesis after cutting with disinfected knife; type: in vivo, potatoes Norin No. 1; settings: for Degree of pathogenesis: knife immersed 5 seconds at 5° C., average of 5 potatoes, about two months after seeding
[9] = test system: Clavibacter michiganense subsp. Nebraskense (ATCC27822); assay: Basic test: cutting knife disinfection, ring rot pathogens; type: cell-based; settings: knife immersed 5 seconds
[10] = test system: Burkholderia glumae; assay: Material disinfection test; type: cell-based; settings: 5 minutes
[11] = test system: Erwinia carotovora var. cartovora; assay: Basic test: cutting knife disinfection, blackleg pathogens; type: cell-based; settings: knife immersed 5 seconds
[12] = test system: Burkholderia plantarii; assay: Material disinfection test; type: cell-based; settings: 5 minutes
[13] = test system: Rhizoctonia solani; assay: Material disinfection test; type: cell-based; settings: 5 minutes

O=C(O)/C=C\C(=O)O [Maleic acid]
average value of viable filamentous fungi counts on all materials examined ([1]; 2 times solution sprayed): 0 cfu/ml
average value of viable filamentous fungi counts on all materials examined ([1]; 5 times solution sprayed): 0 cfu/ml
average value of viable filamentous fungi counts on all materials examined ([1]; 25 times solution sprayed): 0 cfu/ml
average value of viable filamentous fungi counts on all materials examined ([1]; 50 times solution sprayed): 0 cfu/ml
average value of viable filamentous fungi counts on all materials examined ([1]; 100 times solution sprayed): 0 cfu/ml
average value of viable filamentous fungi counts on all materials examined ([1]; 200 times solution sprayed): 73 cfu/ml
average value of viable filamentous fungi counts on all materials examined ([1]; 500 times solution sprayed): 3.1 × 10^3 cfu/ml
average value of viable filamentous fungi counts on all materials examined ([2]; 2 times solution sprayed): 0 cfu/ml
average value of viable filamentous fungi counts on all materials examined ([2]; 5 times solution sprayed): 0 cfu/ml
average value of viable filamentous fungi counts on all materials examined ([2]; 25 times solution sprayed): 0 cfu/ml
average value of viable filamentous fungi counts on all materials examined ([2]; 50 times solution sprayed): 0 cfu/ml
average value of viable filamentous fungi counts on all materials examined ([2]; 100 times solution sprayed): 0 cfu/ml
average value of viable filamentous fungi counts on all materials examined ([2]; 200 times solution sprayed): 1.7 × 10^2 cfu/ml
average value of viable filamentous fungi counts on all materials examined ([2]; 500 times solution sprayed): 1.0 × 10^2 cfu/ml
Average value of viable bacteria counts on all materials examined ([3]; 2 times solution sprayed): 0 cfu/ml
Average value of viable bacteria counts on all materials examined ([3]; 5 times solution sprayed): 0 cfu/ml
Average value of viable bacteria counts on all materials examined ([3]; 25 times solution sprayed): 0 cfu/ml
Average value of viable bacteria counts on all materials examined ([3]; 50 times solution sprayed): 0 cfu/ml
Average value of viable bacteria counts on all materials examined ([3]; 100 times solution sprayed): 0 cfu/ml
Average value of viable bacteria counts on all materials examined ([3]; 200 times solution sprayed): 53 cfu/ml
Average value of viable bacteria counts on all materials examined ([3]; 500 times solution sprayed): 3.5 × 10^3 cfu/ml
average value of viable filamentous fungi counts on all materials examined ([4]; 2 times solution sprayed): 0 cfu/ml
average value of viable filamentous fungi counts on all materials examined ([4]; 5 times solution sprayed): 0 cfu/ml
average value of viable filamentous fungi counts on all materials examined ([4]; 25 times solution sprayed): 0 cfu/ml
average value of viable filamentous fungi counts on all materials examined ([4]; 50 times solution sprayed): 0 cfu/ml
average value of viable filamentous fungi counts on all materials examined ([4]; 100 times solution sprayed): 0 cfu/ml
average value of viable filamentous fungi counts on all materials examined ([4]; 200 times solution sprayed): 1.1 × 10^2 cfu/ml
average value of viable filamentous fungi counts on all materials examined ([4]; 500 times solution sprayed): 7.8 × 10^2 cfu/ml
sterilization in material disinfection test (in words) [5]: complete sterilization
Average value of viable bacteria counts on all materials examined ([6]; 2 times solution sprayed): 0 cfu/ml
Average value of viable bacteria counts on all materials examined ([6]; 5 times solution sprayed): 0 cfu/ml
Average value of viable bacteria counts on all materials examined ([6]; 25 times solution sprayed): 0 cfu/ml
Average value of viable bacteria counts on all materials examined ([6]; 50 times solution sprayed): 0 cfu/ml
Average value of viable bacteria counts on all materials examined ([6]; 100 times solution sprayed): 0 cfu/ml
Average value of viable bacteria counts on all materials examined ([6]; 200 times solution sprayed): 18 cfu/ml
Average value of viable bacteria counts on all materials examined ([6]; 500 times solution sprayed): 1.0 × 10^2 cfu/ml
average value of viable filamentous fungi counts on all materials examined ([7]; 2 times solution sprayed): 0 cfu/ml
average value of viable filamentous fungi counts on all materials examined ([7]; 5 times solution sprayed): 0 cfu/ml
average value of viable filamentous fungi counts on all materials examined ([7]; 25 times solution sprayed): 0 cfu/ml
average value of viable filamentous fungi counts on all materials examined ([7]; 50 times solution sprayed): 0 cfu/ml
average value of viable filamentous fungi counts on all materials examined ([7]; 100 times solution sprayed): 0 cfu/ml
average value of viable filamentous fungi counts on all materials examined ([7]; 200 times solution sprayed): 1.5 × 10^2 cfu/ml
average value of viable filamentous fungi counts on all materials examined ([7]; 500 times solution sprayed): 2.7 × 10^2 cfu/ml
Degree of pathogenesis ([8]; 5 times solution): 0
sterilization in test using potatoes (in words) ([8]; 5 to 10 times solution): complete sterilization
Degree of pathogenesis ([8]; 10 times solution): 0
sterilization effect in test using potatoes (in words) ([8]; 50 times solution): high sterilization effect
Degree of pathogenesis ([8]; 50 times solution): 3 (20 to less than 40%)
sterilization of ring rot pathogens (in words) ([9]; 2 to 10 times solutions): complete sterilization
sterilization effect on ring rot pathogens (in words) ([9]; 25 to 50 times solutions): high sterilization effect
Average value of viable bacteria counts on all materials examined ([10]; 2 times solution sprayed): 0 cfu/ml
Average value of viable bacteria counts on all materials examined ([10]; 5 times solution sprayed): 0 cfu/ml
Average value of viable bacteria counts on all materials examined ([10]; 25 times solution sprayed): 0 cfu/ml
Average value of viable bacteria counts on all materials examined ([10]; 50 times solution sprayed): 0 cfu/ml
Average value of viable bacteria counts on all materials examined ([10]; 100 times solution sprayed): 0 cfu/ml
Average value of viable bacteria counts on all materials examined ([10]; 200 times solution sprayed): 93 cfu/ml
Average value of viable bacteria counts on all materials examined ([10]; 500 times solution sprayed): 5.0 × 10^3 cfu/ml
sterilization of blackleg pathogens (in words) ([11]; 2 to 10 times solutions): complete sterilization
sterilization effect on blackleg pathogens (in words) ([11]; 25 to 50 times solutions): high sterilization effect
Average value of viable bacteria counts on all materials examined ([12]; 2 times solution sprayed): 0 cfu/ml
Average value of viable bacteria counts on all materials examined ([12]; 5 times solution sprayed): 0 cfu/ml
Average value of viable bacteria counts on all materials examined ([12]; 25 times solution sprayed): 0 cfu/ml
Average value of viable bacteria counts on all materials examined ([12]; 50 times solution sprayed): 0 cfu/ml
Average value of viable bacteria counts on all materials examined ([12]; 100 times solution sprayed): 0 cfu/ml
Average value of viable bacteria counts on all materials examined ([12]; 200 times solution sprayed): 65 cfu/ml
Average value of viable bacteria counts on all materials examined ([12]; 500 times solution sprayed): 1.5 × 10^2 cfu/ml
average value of viable filamentous fungi counts on all materials examined ([13]; 2 times solution sprayed): 0 cfu/ml
average value of viable filamentous fungi counts on all materials examined ([13]; 5 times solution sprayed): 0 cfu/ml
average value of viable filamentous fungi counts on all materials examined ([13]; 25 times solution sprayed): 0 cfu/ml
average value of viable filamentous fungi counts on all materials examined ([13]; 50 times solution sprayed): 0 cfu/ml
average value of viable filamentous fungi counts on all materials examined ([13]; 100 times solution sprayed): 0 cfu/ml
average value of viable filamentous fungi counts on all materials examined ([13]; 200 times solution sprayed): 2.5 × 10^2 cfu/ml
average value of viable filamentous fungi counts on all materials examined ([13]; 500 times solution sprayed): 3.1 × 10^2 cfu/ml
